Counter-ions that a name gives are not always drawn. Like-named read-outs stand apart in the source and are kept apart here. Residues, ends and D or L forms follow the SMILES beside them.
Biological target: T1, ABCG2 (Homo sapiens, UniProt Q9UNQ0)
T1 sequence (Q9UNQ0 1-655): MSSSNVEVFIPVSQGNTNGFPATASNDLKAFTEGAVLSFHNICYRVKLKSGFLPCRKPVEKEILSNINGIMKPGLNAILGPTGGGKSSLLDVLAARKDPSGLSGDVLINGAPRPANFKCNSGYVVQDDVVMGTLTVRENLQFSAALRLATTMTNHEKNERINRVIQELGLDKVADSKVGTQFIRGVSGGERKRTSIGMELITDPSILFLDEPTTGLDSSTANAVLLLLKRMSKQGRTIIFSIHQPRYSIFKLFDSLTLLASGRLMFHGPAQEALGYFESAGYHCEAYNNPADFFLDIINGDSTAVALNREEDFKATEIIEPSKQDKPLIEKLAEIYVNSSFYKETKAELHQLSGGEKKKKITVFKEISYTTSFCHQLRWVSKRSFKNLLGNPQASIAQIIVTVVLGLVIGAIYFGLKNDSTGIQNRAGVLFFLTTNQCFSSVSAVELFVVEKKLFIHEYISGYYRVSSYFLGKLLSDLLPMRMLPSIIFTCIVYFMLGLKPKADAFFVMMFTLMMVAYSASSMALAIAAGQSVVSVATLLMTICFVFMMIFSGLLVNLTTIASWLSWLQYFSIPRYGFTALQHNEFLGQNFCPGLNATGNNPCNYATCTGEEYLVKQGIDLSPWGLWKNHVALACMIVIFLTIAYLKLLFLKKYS
Test: Bioluminescence imaging (BLI) assay in HEK293/ABCG2/fLuc cells
Method: HEK293/ABCG2/fLuc cells were plated into 96-well plates at a density of 4×10^4 cells/100 μL per well and were allowed to attach overnight. The following day, 10 μL of each compound or the control solvent was transferred from a compound library in a 96-well, high-throughput format into the wells using a multichannel pipette. […] Images were taken every 5 minutes for ˜1 h. Light output from each well was quantified at the 40 min time point after initiation of imaging, and the signal-to-background (S/B) ratio of the light output from each compound divided by that from the control well was calculated. This S/B ratio serves as an indicator of the potency of ABCG2 inhibition, the mechanism by which BLI signal is enhanced.
Images were taken every 5 min for ˜1 h, and light output from each well at the 40 min time point was chosen for quantification. The SB ratio of the light output from each compound divided by that from the control well was calculated. This ratio was used as an indicator of the potency of ABCG2 inhibition, the mechanism by which BLI signal is enhanced.
The BLI signal-enhancing effect of selected ABCG2 inhibitors was evaluated within the range of 0.001 μM-100 μM, with HEK293/ABCG2/fLuc cells and 50 μg/mL D-luciferin. The data obtained at 40 min after imaging commencement were chosen arbitrarily to be plotted (FIG. 3).

[1] = Table 2, HEK293/ABCG2/fLuc cells, compound approximately 17 μM, ~50 μg/mL D-luciferin, 40 min time point

Row | Compound | Fold (BLI enhancement, S/B ratio over control) (human, 40 min, 17 μM) | other results
1 | C[C@]12CC[C@@H]3c4ccc(O)cc4CC[C@H]3[C@@H]1CC[C@@H]2O [estradiol] |  | fold (BLI enhancement), additional previously known ABCG2 inhibitors (human, 40 min, 17 μM): 3.6 fold
2 | O=c1cc(-c2ccccc2)oc2cc(O)c(O)cc12 [6,7-dihydroxyflavone] | 2.7 fold | fold (BLI enhancement), additional previously known ABCG2 inhibitors (human, 40 min, 17 μM): 2.7 fold
3 | CC1=NCCc2c1[nH]c1cc(O)ccc21.Cl [harmalol hydrochloride] |  | Fold (BLI enhancement, S/B ratio over control) (human): 2.9 fold
4 | O=c1[nH]c(=O)n([C@H]2C[C@H](O)[C@@H](CO)O2)cc1F [floxuridine] | 2.2 fold | 
5 | CS(=O)(=O)O.O=C(O[C@H]1C[C@H]2CC3C[C@@H](C1)N2CC3=O)c1c[nH]c2ccccc12 [dolasetron mesylate] |  | Fold (BLI enhancement, S/B ratio over control): 3.0 fold
6 | O=C(C1CCCCC1)N1CC(=O)N2CCc3ccccc3C2C1 (centres unmarked) [praziquantel] | 3.3 fold | 
7 | O=c1c(-c2ccc(O)cc2)coc2cc(O)cc(O)c12 [genistein] |  | BLI signal enhancement (human, 40 min, 17 μM): 1.2 fold; fold (BLI enhancement), additional previously known ABCG2 inhibitors (human, 40 min, 17 μM): 1.2 fold
8 | COc1ccc(Cc2nccc3cc(OC)c(OC)cc23)cc1OC [papaverine hydrochloride] |  | Fold (BLI enhancement, S/B ratio over control) (human): 2.0 fold
9 | COc1ccc(C(=O)NCc2ccc(OCCN(C)C)cc2)cc1OC [itopride hydrochloride] | 2.2 fold | 
10 | Cc1cc(O)c2c(c1)C(=O)c1cc(O)cc(O)c1C2=O [emodin] | 6.4 fold | Fold (BLI enhancement), previously unknown compounds (human, 40 min, 17 μM): 6.4 fold
11 | O=c1[nH]c2ccccc2n1C1CCN(CCCC(c2ccc(F)cc2)c2ccc(F)cc2)CC1 [pimozide] | 2.0 fold | 
12 | CNc1ccc2oc(C[C@H]3O[C@@]4(CC[C@H]3C)O[C@H]([C@H](C)C(=O)c3ccc[nH]3)[C@H](C)C[C@H]4C)nc2c1C(=O)O [calcimycin] |  | BLI signal enhancement at lower concentrations: enhance BLI signal minimally
13 | Brc1c(NC2=NCCN2)ccc2nccnc12 [brimonidine] | 3.4 fold | 
14 | O=C(Nc1ccccc1)OCC(CN1CCCCC1)OC(=O)Nc1ccccc1 (centres unmarked) [diperodon hydrochloride] | 2.6 fold | 
15 | NCCS [mercaptamine hydrochloride] | 2.2 fold | 
16 | CCCc1nn(C)c2c(=O)[nH]c(-c3cc(S(=O)(=O)N4CCN(C)CC4)ccc3OCC)nc12 [sildenafil] | 6.6 fold | Fold (BLI enhancement), previously unknown compounds (human, 40 min, 17 μM): 6.6 fold
17 | COc1cc(O)c2c(c1)C(=O)c1cc(C)cc(O)c1C2=O [physcion] | 2.1 fold | 

Row | Compound | Fold (BLI enhancement, S/B ratio over control) (human, 40 min, 17 μM) | other results
18 | CC(=O)[C@H]1CC[C@H]2[C@@H]3C[C@H](C)C4=CC(=O)CC[C@]4(C)[C@H]3[C@@H](O)C[C@]12C [medrysone] | 2.3 fold | 
19 | COc1ccc(-c2cc(=O)c3c(O)cc(O)cc3o2)cc1 [acacetin] |  | BLI signal enhancement (BLI screen, approximately 17 μM, 40 min): 1.8 fold; fold (BLI enhancement), additional previously known ABCG2 inhibitors (Table 5, approximately 17 μM, 40 min time point): 1.8 fold
20 | COc1ccc2c(c1)[nH]c1c(C)nccc12 [harmine] |  | Fold (BLI enhancement), known compounds (human): 8.9 fold; Fold (BLI enhancement, S/B ratio over control) (human): 8.9 fold
21 | O=C1C(O)=C([C@H]2CC[C@H](c3ccc(Cl)cc3)CC2)C(=O)c2ccccc21 [atovaquone] | 3.5 fold | 
22 | COc1ccc(CCN(C)CCCC(C#N)(c2cc(OC)c(OC)c(OC)c2)C(C)C)cc1OC (centres unmarked) [gallopamil] |  | Fold (BLI enhancement, S/B ratio over control) [1]: 2.4 fold
23 | CCCCC(=O)O[C@]1(C(=O)CO)[C@@H](C)C[C@H]2[C@@H]3CCC4=CC(=O)C=C[C@]4(C)[C@@]3(F)[C@@H](O)C[C@@]21C [betamethasone valerate] | 2.6 fold | 
24 | CCCc1nc2c(C)cc(-c3nc4ccccc4n3C)cc2n1Cc1ccc(-c2ccccc2C(=O)O)cc1 [telmisartan] | 2.0 fold | 
25 | O=C(O)CCCc1ccccc1 [phenylbutyric acid] |  | Fold (BLI enhancement, S/B ratio over control) [1]: 2.1 fold
26 | C#C[C@]1(O)CC[C@H]2[C@@H]3CCc4cc(O)ccc4[C@H]3CC[C@@]21C [ethinyl estradiol] | 2.4 fold | 
27 | Cc1cc(O)cc(C)c1Cl [chloroxylenol] | 2.4 fold | 
28 | CC(C)C[C@H]1C(=O)N2CCC[C@H]2[C@]2(O)O[C@](NC(=O)[C@@H]3C=C4c5cccc6[nH]c(Br)c(c56)C[C@H]4N(C)C3)(C(C)C)C(=O)N12 [bromocriptine mesylate] |  | Fold (BLI enhancement, S/B ratio over control) (human): 2.1 fold
29 | estrone hemisuccinate |  | Fold (BLI enhancement, S/B ratio over control) [1]: 5.4 fold; Fold (BLI enhancement), previously unknown compounds (Table 4, approximately 17 μM, 40 min time point): 5.4 fold
30 | N#Cc1ccc2c(c1)N(CCCN1CCC(O)CC1)c1ccccc1S2 [periciazine] |  | Fold (BLI enhancement), previously unknown compounds (human, 40 min, 17 μM): 6.3 fold
31 | CC(C)OC(=O)C(C)(C)Oc1ccc(C(=O)c2ccc(Cl)cc2)cc1 [fenofibrate] | 2.3 fold | 
32 | CCN(CCCCOC(=O)c1ccc(OC)c(OC)c1)C(C)Cc1ccc(OC)cc1 (centres unmarked) [mebeverine hydrochloride] | 3.2 fold | 
33 | COc1cc2nc(N3CCN(C(=O)C4COc5ccccc5O4)CC3)nc(N)c2cc1OC (centres unmarked) [doxazosin mesylate] |  | IC50: 8 µM; BLI signal enhancement (human, 40 min, 17 μM): 16 fold
34 | COC(=O)Nc1nc2cc(C(=O)c3ccc(F)cc3)ccc2[nH]1 [flubendazole] | 6.3 fold | Fold (BLI enhancement), previously unknown compounds (human, 40 min, 17 μM): 6.3 fold

Now from value to compound, other results behind:

Row | Fold (BLI enhancement, S/B ratio over control) (human, 40 min, 17 μM) | Compound | other results
35 | 4.3 fold | C=CC1=C(C(=O)O)N2C(=O)[C@@H](NC(=O)/C(=N\OCC(=O)O)c3csc(N)n3)[C@H]2SC1 [citropen] | 
36 | 6.2 fold | COC(=O)[C@H]1[C@H]2C[C@H]3c4[nH]c5cc(OC)ccc5c4CCN3C[C@H]2C[C@@H](OC(=O)c2cc(OC)c(OC)c(OC)c2)[C@@H]1OC [isoreserpine] | Fold (BLI enhancement), previously unknown compounds (human, 40 min, 17 μM): 6.2 fold
37 | 2.5 fold | CC(C)(O/N=C(\C(=O)N[C@@H]1C(=O)N2C(C(=O)[O-])=C(C[n+]3ccccc3)CS[C@H]12)c1csc(N)n1)C(=O)O [ceftazidime] | 
38 | 2.2 fold | CC(=O)OCC(=O)[C@@]1(O)[C@H](C)C[C@H]2[C@@H]3CCC4=CC(=O)C=C[C@]4(C)[C@@]3(F)[C@@H](O)C[C@@]21C [dexamethasone acetate] | 
39 | 2.6 fold | CCOc1ccc(Cc2nccc3cc(OCC)c(OCC)cc23)cc1OCC [ethaverine hydrochloride] | 
40 | 2.5 fold | NC1(C(=O)NCC(=O)O)CCCC1 [cycloleucylglycine] (HELM PEPTIDE1{[NC1(C(=O)[*:2])CCCC1].G}$$$$V2.0) | 
41 | 2.0 fold | CC(=O)SCC(Cc1ccccc1)C(=O)NCC(=O)OCc1ccccc1 (centres unmarked) [racecadotril] | 
42 | 2.4 fold | OCc1cc(C(O)CNCCCCCCOCCCCc2ccccc2)ccc1O (centres unmarked) [salmeterol xinafoate] | 
43 | 3.0 fold | O=C1c2ccc(O)c(O)c2C(=O)c2c(O)ccc(O)c21 [quinalizarin] | 
44 | 2.1 fold | Cc1ccc(C(=O)C(C)CN2CCCCC2)cc1 (centres unmarked) [tolperisone hydrochloride] | 
45 | 2.1 fold | CC(=O)O[C@]1(C(C)=O)CC[C@H]2[C@@H]3C=C(C)C4=CC(=O)CC[C@]4(C)[C@H]3CC[C@@]21C [megestrol acetate] | 
46 | 4.9 fold | CC(C)(C)NC(=O)[C@@H]1C[C@@H]2CCCC[C@@H]2CN1C[C@@H](O)[C@H](Cc1ccccc1)NC(=O)[C@H](CC(N)=O)NC(=O)c1ccc2ccccc2n1 [saquinavir mesylate] | fold (BLI enhancement), additional previously known ABCG2 inhibitors (human, 40 min, 17 μM): 4.9 fold
47 | 3.0 fold | CCOC(=O)C1=C(C)NC(C)=C(C(=O)OC)C1c1cccc(Cl)c1Cl (centres unmarked) [felodipine] | 
48 | 2.3 fold | CCOC(=O)Nc1ccc2c(c1)N(C(=O)CCN1CCOCC1)c1ccccc1S2 [moricizine hydrochloride] | 
49 | 2.3 fold | O=c1cc(-c2ccccc2)oc2cc(O)cc(O)c12 [chrysin] | fold (BLI enhancement), additional previously known ABCG2 inhibitors (human, 40 min, 17 μM): 2.3 fold
50 | 4.0 fold | COc1ccc(CN2CCN(C(c3ccc(F)cc3)c3ccc(F)cc3)CC2)c(OC)c1OC [lomerizine hydrochloride] | 

Reference: patent publication US20150148256A1, “BIOLUMINESCENCE IMAGING-BASED SCREENING ASSAY AND INHIBITORS OF ABCG2” (THE JOHNS HOPKINS UNIVERSITY, priority 2008, published 2015)
